What was measured:
SKOV-3 tumors = experiment: Tumor growth inhibition in vivo; conditions: nude mice, subcutaneous SKOV-3 tumors; GDC-941 orally, II-a-3 I.P., 50-100 mg/Kg/QD, 21 days
Procedure: Tumor Growth Inhibition In Vivo
The in vivo experiment was performed at Piedmont Research Center (Research Triangle Park, N.C.). Nude mice were implanted with SKOV-3 tumors subcutaneously. […] Dosing continued for 21 days. Tumor volume was measured twice a week.

SKOV3 cells = experiment: GI50 determinations in SKOV3 cells; type: cell-based; conditions: Homo sapiens, SK-OV-3
PI3 kinase = experiment: Comparison of covalent and non-covalent inhibitors (Tables 18 and 19): prolonged PD, mechanism; conditions: Table 19
Procedure: “A” designates ≦10 nM; “B” designates 10-100 nM; and “C” designates 100-1000 nM

PI3Kγ (p120γ) = biological target: T1, PI3Kγ (p120γ) (Homo sapiens, UniProt P48736); experiment: HTRF assay, potency against active PI3Kγ; type: biochemical; conditions: [ATP]=50 μM, [di-C8-PIP2]=10 μM, 30 min pre-incubation, read-out: PI3Kγ Inhibition
T1 construct: purchased BPS Bioscience (San Diego, Calif.) or Millipore (Billerica, Mass.)
T1 sequence (P48736 whole entry): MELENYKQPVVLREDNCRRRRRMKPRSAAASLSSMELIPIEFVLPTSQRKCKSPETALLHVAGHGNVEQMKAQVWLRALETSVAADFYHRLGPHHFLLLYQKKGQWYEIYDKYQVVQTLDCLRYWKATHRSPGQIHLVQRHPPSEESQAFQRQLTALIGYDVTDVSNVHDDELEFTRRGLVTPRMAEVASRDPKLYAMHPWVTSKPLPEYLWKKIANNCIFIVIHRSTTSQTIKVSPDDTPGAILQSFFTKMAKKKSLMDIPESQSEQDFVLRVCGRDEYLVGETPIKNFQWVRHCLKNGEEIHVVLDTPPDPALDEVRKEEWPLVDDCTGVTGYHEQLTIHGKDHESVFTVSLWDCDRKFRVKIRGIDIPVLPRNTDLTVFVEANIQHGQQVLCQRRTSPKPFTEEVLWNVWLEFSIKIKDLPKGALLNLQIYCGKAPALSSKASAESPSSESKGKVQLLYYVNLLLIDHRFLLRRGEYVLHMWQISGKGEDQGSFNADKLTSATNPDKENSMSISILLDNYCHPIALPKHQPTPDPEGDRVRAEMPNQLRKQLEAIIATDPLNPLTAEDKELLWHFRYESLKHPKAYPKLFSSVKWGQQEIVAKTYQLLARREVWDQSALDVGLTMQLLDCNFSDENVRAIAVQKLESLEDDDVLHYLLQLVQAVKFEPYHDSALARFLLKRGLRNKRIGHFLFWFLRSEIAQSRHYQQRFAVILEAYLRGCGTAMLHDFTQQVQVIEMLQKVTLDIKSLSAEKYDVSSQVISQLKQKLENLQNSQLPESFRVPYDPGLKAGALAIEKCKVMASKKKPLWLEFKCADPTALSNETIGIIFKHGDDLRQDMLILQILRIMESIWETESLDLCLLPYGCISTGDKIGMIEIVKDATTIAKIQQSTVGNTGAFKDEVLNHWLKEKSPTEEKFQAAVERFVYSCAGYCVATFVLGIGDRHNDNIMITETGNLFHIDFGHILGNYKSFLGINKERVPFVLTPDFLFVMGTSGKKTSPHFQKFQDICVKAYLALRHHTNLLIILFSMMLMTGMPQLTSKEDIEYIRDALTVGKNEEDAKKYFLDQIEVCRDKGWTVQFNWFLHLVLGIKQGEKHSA
How it was run: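 End-point competition HTRF: enzyme (p110β/p85α 0.75 nM; p120γ 2-2.5 nM) with 10 μM di-C8-PIP2 pre-incubated 30 min at 25° C with compound, then 50 μM ATP added for 30-60 min at 25° C. Stopped, detected after 1 and 18 h; IC50 from variable-slope fit.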

CC(C)=CC(=O)CCC(=O)N1CCN(Cc2cc3nc(-c4cccc5[nH]ncc45)nc(N4CCOCC4)c3s2)CC1 [II-a-3, 1-(4-((2-(1H-indazol-4-yl)-4-morpholinothieno[3,2-d]pyrimidin-6-yl)methyl)piperazin-1-yl)-6-methylhept-5-ene-1,4-dione]
tumor growth (SKOV-3 tumors): Inhibition of tumor growth | GI50 (SKOV3 cells; SKOV3 cells, 96 hours, Cell Titer Glo): 10 to 100 nM | GI50 (SKOV3 cells; Table 19, assay not given, classes agree with Table 26): 10 to 100 nM | Prolonged PD (PI3 kinase): Yes

C/C=C/C(=O)CCC(=O)N1CCN(Cc2cc3nc(-c4cccc5[nH]ncc45)nc(N4CCOCC4)c3s2)CC1 [II-a-36, (E)-1-(4-((2-(1H-indazol-4-yl)-4-morpholinothieno[3,2-d]pyrimidin-6-yl)methyl)piperazin-1-yl)hept-5-ene-1,4-dione]
IC50 (PI3Kγ (p120γ)): > 1000 nM

Source: patent US20110230476A1, “PI3 KINASE INHIBITORS AND USES THEREOF” (AVILA THERAPEUTICS, INC., priority 2009, published 2011)
